Reference: patent US7022699B2, “Cyclohexenyl phenyl diazepines vasopressin and oxytocin receptor modulators” (Wyeth, priority 2001, dated 2006)

Experiments:
human oxytocin receptor = biological target: T1, human oxytocin receptor (Homo sapiens, UniProt P30559); experiment: Oxytocin binding in CHO cell membranes expressing human oxytocin receptors ([3H]oxytocin); conditions: for inhibition at 0.1 µM / OT % inhibition @ 100 nM: 100 nM, values without parentheses; for inhibition at 0.1 µM: read-out: OT % inhibition @ 100 nM; for IC50: values in parentheses, read-out: OT (IC50)
T1 construct: host or cells: CHO cells, stably transfected (pcDNA3.1 vector); membranes
T1 sequence (P30559 1-389): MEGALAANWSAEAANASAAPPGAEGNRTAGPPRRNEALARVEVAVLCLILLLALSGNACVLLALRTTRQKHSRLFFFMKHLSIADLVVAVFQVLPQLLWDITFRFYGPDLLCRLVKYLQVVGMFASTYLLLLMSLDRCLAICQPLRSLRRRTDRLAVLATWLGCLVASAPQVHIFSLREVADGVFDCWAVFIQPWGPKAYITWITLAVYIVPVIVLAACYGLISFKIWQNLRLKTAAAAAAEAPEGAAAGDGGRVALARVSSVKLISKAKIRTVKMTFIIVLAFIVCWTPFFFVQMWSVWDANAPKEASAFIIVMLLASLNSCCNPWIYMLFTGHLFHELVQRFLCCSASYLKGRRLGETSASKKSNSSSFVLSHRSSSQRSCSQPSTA
Excerpt: Oxytocin Binding in Chinese Hamster Ovary Cell Membranes Expressing Human Oxytocin Receptors
Chinese Hamster Ovary (CHO) cells stably transfected with the human oxytocin (cf. Tanizawa et al., U.S. Pat. No. 5,466,584 (1995) to Rohto Pharmaceutical Co. Ltd., Osaka, Japan) were obtained from M. Thibonnier, Case Western Reserve University School of Medicine, Cleveland, Ohio. A. Passaging and Amplification of Cells: CHO cells transfected with the human oxytocin receptors obtained from M. Thibonnier (pcDNA3.1 vector) are allowed to grow to confluency (approx. >90%) in T-150 flasks under sterile conditions, in a cell culture medium of F-12 Nutrient Mixture (HAM) with L-glutamine (Gibco Cat. #11765-054) containing 15 mM HEPES (Gibco Cat. #15630-080), 1% antibiotic/antimycotic (add 5 mL 100×, Gibco Cat. #15240-062 per 500 mL F-12), 400 μg/mL of Geneticin (add 4 mL of 50 mg/mL per 500 mL F-12) and 10% Fetal Bovine Serum (Qualified, heat inactivated, Gibco Cat. #16140-063). The medium is removed by aspiration and the cells are washed with 10 mL of Hank's Balanced Salt solution (Gibco Cat. #14175-095). The salt solution is removed by aspiration and the cells trypsinized with 5 mL of trypsin-EDTA (0.05% trypsin, 0.53 mM EDTA-4Na, Gibco Cat. #25300-070) for 1 min. The trypsin is removed by aspiration and the cells dislodged by tapping. Cell Culture medium (e.g. 30 mL for 1:30 split) is immediately added and mixed well to inactivate trypsin. 1 mL of detached cells is added to new culture flasks containing fresh Cell Culture medium (e.g. into 25 mL per T-150 flask), and mixed gently. The cells are incubated at 37° C. in 5% CO2. The medium is changed at 3 to 4 days interval (or as appropriate). The cells grow to confluency (approx. >75%–95%) within 7–8 days. All steps are done under sterile conditions. B. Membrane Preparation: The cells are washed twice gently with Hank's Balanced Salt solution (e.g., use 10 mL per T-150 flask). The excess is removed and the cells bathed for 15–30 min. in an enzyme-free Cell Dissociation Buffer (e.g., use 8 mL Hank's Based, Gibco Cat. #13150-016 per T-150 flask) until cells are loosened. The contents are transferred to centrifuge tubes (50 mL size) kept in ice bath. All subsequent steps are done at 4° C. The tubes are centrifuged at 300×g for 15 min (1380 rpm on SORVAL, Model RT6000D, using rotor for 50 mL tubes). The supernatant is discarded and the cells suspended in homogenizing buffer (10 mM Tris-HCl containing 0.25 M sucrose and 1 mM EDTA, pH 7.4) ensuring that the volume of the buffer is about ten times the volume of the cell pellet. The cells are pooled into a centrifuge tube (50 mL) and homogenized with Polytron at setting 6 for 10 sec. The homogenate is transferred into a Potter-Elvjehm homogenizer and homogenized with 3 strokes. The homogenate is centrifuged at 1500×g for 10 min at 4° C. (3100 rpm using SORVAL, model RT6000D, using rotor for 50 mL tubes). The pellet. is discarded. The supernatant is centrifuged at 100,000×g for 60 min. at 4° C. (Beckman L8-80M ultracentrifuge; spin at 37,500 rpm with rotor type 70 Ti for 50 mL tubes; 38,000 rpm with type 80Ti for 15 mL tubes; or 35,800 rpm with rotor type 45Ti). The supernantant is discarded and the pellet suspended in 3 to 4 mL of Tris buffer (50 mM TRIS-HCl, pH 7.4). The protein content is estimated by the Bradford or Lowry method. The volume of the membrane suspension is adjusted with the membrane buffer (50 mM Tris-HCl containing 0.1% BSA and 0.1 mM PMSF) to give 3.0 mg/mL (or as appropriate) of protein. The membranes are aliquoted and stored at −70° C. C. Radioligand Binding Assay: In wells of a 96-well format microliter plate, is added 90, 110 or 130 μL (to make up a final volume of 200 μL) of assay buffer containing 50 mM of Tris-HCl (pH 7.4), […], 1 mg % aprotinin, 1 mg % leupeptin, 2 mg % 1,10-phenanthroline, 10 mg % trypsin inhibitor, and 0.1 mM PMSF. The inhibitors are added on the day of the experiment. […]

inhibition at 0.1 µM (human oxytocin receptor) [%]	further results	SMILES
13		CC1=C(c2ccc(C(=O)N3Cc4cccn4Cc4ccccc43)cc2C)CCCC1O (racemic) [Example 5, (10,11-Dihydro-5H-pyrrolo[2,1-c][1,4]benzodiazepin-10-yl)-[4-(3-hydroxy-2-methyl-cyclohex-1-en-1-yl)-3-methyl-phenyl]-methanone]
90		CC1=C(c2ccc(C(=O)N3Cc4cccn4Cc4ccccc43)cc2C)CCC[C@H]1O (single isomer, unassigned) [Example 41]
96		CC1=C(c2ccc(C(=O)N3Cc4cccn4Cc4ccccc43)cc2C)CCC[C@@H]1O (single isomer, unassigned) [Example 43]
	IC50 (human oxytocin receptor): 7.74 nM; melting point: 92 to 98 °C	COc1cc(C2=CCCCC2)c(Cl)cc1C(=O)N1Cc2cccn2Cc2ccccc21 [Example 1, 10-(5-Chloro-4-cyclohex-1-en-1-yl-2-methoxybenzoyl)-10,11-dihydro-5H-pyrrolo[2,1-c][1,4]benzodiazepine]
96	melting point: 182 to 183 °C	Cc1cc(C(=O)N2Cc3cccn3Cc3ccccc32)ccc1C1=CCCCC1 [Example 2, (10,11-Dihydro-5H-pyrrolo[2,1-c][1,4]benzodiazepin-10-yl)-(4-cyclohex-1-en-1-yl-3-methyl-phenyl)-methanone]
	IC50 (human oxytocin receptor): 24 nM; melting point: 108 °C	Cc1cc(C(=O)N2Cc3cccn3Cc3ccccc32)ccc1C1=CCCc2ccccc21 [Example 3, (10,11-Dihydro-5H-pyrrolo[2,1-c][1,4]benzodiazepin-10-yl)-[4-(3,4-dihydro-naphthalen-1-yl)-3-methyl-phenyl]-methanone]
46		CC1=C(c2ccc(C(=O)N3Cc4cccn4Cc4ccccc43)cc2C)CCCC1=O [Example 4, 3-[2-Methyl-4-(5H-pyrrolo[2,1-c][1,4]benzodiazepin-10(11H)-yl-carbonyl)phenyl]-2-methyl-cyclohex-2-en-1-one]
95		CC1=C(c2ccc(C(=O)N3Cc4cccn4Cc4ccccc43)cc2C)CCC[C@H]1O [Example 6, (10,11-Dihydro-5H-pyrrolo[2,1-c][1,4]benzodiazepin-10-yl)-[4-((3R)-3-hydroxy-2-methyl-cyclohex-1-en-1-yl)-3-methyl-phenyl]-methanone]
	IC50 (human oxytocin receptor): 9.06 nM; melting point: 119 to 120 °C	CC1=C(c2ccc(C(=O)N3Cc4cccn4Cc4ccccc43)cc2)CCCC1 [Example 7, (10,11-Dihydro-5H-pyrrolo[2,1-c][1,4]benzodiazepin-10-yl)-[4-(2-methyl-cyclohex-1-en-1-yl)-phenyl]-methanone]
93	melting point: 209 to 210 °C	COc1cc(C2=CCCc3ccccc32)c(Cl)cc1C(=O)N1Cc2cccn2Cc2ccccc21 [Example 8, 10-[5-Chloro-4-(3,4-dihydro-naphthalen-1-yl)-2-methoxybenzoyl]-10,11-dihydro-5H-pyrrolo[2,1-c][1,4]benzodiazepine]
90		COc1cc(C2=C(C)C(=O)CCC2)c(Cl)cc1C(=O)N1Cc2cccn2Cc2ccccc21 [Example 9, 3-[2-Chloro-5-methoxy-4-(5H-pyrrolo[2,1-c][1,4]benzodiazepin-10(11H)-yl-carbonyl)phenyl]-2-methyl-cyclohex-2-en-1-one]
95		O=C(c1ccc(C2=CCCCC2)cc1Cl)N1Cc2cccn2Cc2ccccc21 [Example 10, (10,11-dihydro-5H-pyrrolo[2,1-c][1,4]benzodiazepin-10-yl)-[2-chloro-4-(cyclohex-1-en1-yl)-phenyl]-methanone]
74		CC1(C)CCCC=C1c1ccc(C(=O)N2Cc3cccn3Cc3ccccc32)c(Cl)c1 [Example 12, (10,11-Dihydro-5H-pyrrolo[2,1-c][1,4]benzodiazepin-10-yl)-[2-chloro-4-(6,6-dimethyl-cyclohex-1-en-1-yl)-phenyl]-methanone]
98		CC1=C(c2ccc(C(=O)N3Cc4cccn4Cc4ccccc43)c(Cl)c2)CCCC1=O [Example 13, (10,11-Dihydro-5H-pyrrolo[2,1-c][1,4]benzodiazepin-10-yl)-[2-chloro-4-(2-methyl-3-oxo-cyclohex-1-en-1-yl)-phenyl]-methanone]
27		CC1=C(c2ccc(C(=O)N3Cc4cccn4Cc4ccccc43)c(Cl)c2)CCCC1O (centres unmarked) [Example 14, (10,11-Dihydro-5H-pyrrolo[2,1-c][1,4]benzodiazepin-10-yl)-[2-chloro-4-(3-hydroxy-2-methyl-cyclohex-1-en-1-yl)-phenyl]-methanone]
	OT % inhibition @ 100 nM (human oxytocin receptor): 27%	CC(C)(C)C1CCCC=C1c1ccc(C(=O)N2Cc3cccn3Cc3ccccc32)cc1 (centres unmarked) [Example 20, (10,11-5H-Dihydro-pyrrolo[2,1-c][1,4]benzodiazepin-10-yl)-[4-(6-tert-butyl-cyclohex-1-en-1-yl)-phenyl]-methanone]
	OT % inhibition @ 100 nM (human oxytocin receptor): 38%	O=C(c1ccc(C2=CCC3CCC2C3)cc1)N1Cc2cccn2Cc2ccccc21 (centres unmarked) [Example 21]
39		O=C(c1ccc(C2=CC(O)CCC2)cc1)N1Cc2cccn2Cc2ccccc21 (centres unmarked) [Example 25, (10,11-Dihydro-5H-pyrrolo[2,1-c][1,4]benzodiazepin-10-yl)-[4-(3-hydroxy-cyclohex-1-en-1-yl)-phenyl]-methanone]
96		CC1=C(c2ccc(C(=O)N3Cc4cccn4Cc4ccccc43)cc2)CCCC1O (centres unmarked) [Example 27, (10,11-Dihydro-5H-pyrrolo[2,1-c][1,4]benzodiazepin-10-yl)-[4-(3-hydroxy-2-methyl-cyclohex-1-en-1-yl)-phenyl]-methanone]
63		Cc1cc(C(=O)N2Cc3cccn3Cc3ccccc32)ccc1C1=CC(O)CCC1 (centres unmarked) [Example 40, (10,11-Dihydro-5H-pyrrolo[2,1-c][1,4]benzodiazepin-10-yl)-[4-(3-hydroxy-cyclohex-1-en-1-yl)-3-methyl-phenyl]-methanone]
67		CC1=C(c2ccc(C(=O)N3Cc4cccn4Cc4ccccc43)cc2C)CCCC1N (centres unmarked) [Example 45, [4-(3-Amino-2-methyl-cyclohex-1-en-1-yl)-3-methyl-phenyl]-(10,11-dihydro-5H-pyrrolo[2,1-c][1,4]benzodiazepin-10-yl)-methanone]
